Data taken from patent US8334382B2, “Substituted biaryl piperazinyl-pyridine analogues” (Neurogen Corporation, priority 2004, dated 2012).

What follows are compounds tested against T1, human capsaicin receptor (Homo sapiens, UniProt Q8NER1) (assay: Calcium mobilization assay, determination of antagonist activity). Conditions: capsaicin at EC50; cells expressing human capsaicin receptor; Example 6.
T1 construct: expressed in transfected cells; host or cells: HEK293, stably transfected with pBK-CMV construct
Type: cell-based
Summary of the method: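 HEK293 cells stably expressing full-length human TRPV1, loaded with Fluo-3 AM in KRH buffer pH 7.4, preincubated with compound (final 1-5 µM) in the dark at room temperature for 0.5-6 h, then stimulated with capsaicin at its EC50. FLIPR fluorescence gave IC50 as concentration halving the capsaicin response.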

T1 sequence (Q8NER1 whole entry): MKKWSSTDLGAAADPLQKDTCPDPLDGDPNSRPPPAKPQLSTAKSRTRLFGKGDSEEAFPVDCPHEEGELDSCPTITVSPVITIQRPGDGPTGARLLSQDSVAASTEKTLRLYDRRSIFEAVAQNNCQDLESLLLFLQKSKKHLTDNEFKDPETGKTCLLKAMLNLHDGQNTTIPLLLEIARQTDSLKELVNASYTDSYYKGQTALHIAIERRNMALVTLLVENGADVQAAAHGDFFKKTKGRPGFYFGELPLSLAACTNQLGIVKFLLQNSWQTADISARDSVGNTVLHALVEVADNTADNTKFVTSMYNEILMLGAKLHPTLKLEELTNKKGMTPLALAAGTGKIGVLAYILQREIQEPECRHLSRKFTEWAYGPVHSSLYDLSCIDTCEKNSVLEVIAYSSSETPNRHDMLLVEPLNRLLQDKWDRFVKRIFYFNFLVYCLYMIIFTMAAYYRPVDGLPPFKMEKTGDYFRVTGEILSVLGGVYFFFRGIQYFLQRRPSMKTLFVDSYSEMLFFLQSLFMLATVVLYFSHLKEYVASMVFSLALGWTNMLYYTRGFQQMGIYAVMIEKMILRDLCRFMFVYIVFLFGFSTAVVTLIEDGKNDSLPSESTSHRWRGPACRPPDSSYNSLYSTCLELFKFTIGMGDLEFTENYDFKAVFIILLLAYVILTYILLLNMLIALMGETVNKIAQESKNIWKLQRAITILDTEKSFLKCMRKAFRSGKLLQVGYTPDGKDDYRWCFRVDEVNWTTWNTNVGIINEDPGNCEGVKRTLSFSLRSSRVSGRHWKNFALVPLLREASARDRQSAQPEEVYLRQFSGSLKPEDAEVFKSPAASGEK

IC50, ≤ 1 µM:
Cc1cc(CO)cnc1N1CCN(c2cc(-c3ccccc3)nc(N3CCCC3C)n2)[C@H](C)C1 (stereo partly drawn) [Example 63, (5-Methyl-6-{3-(R)-methyl-4-[2-(2-methyl-pyrrolidin-1-yl)-6-phenyl-pyrimidin-4-yl]-piperazin-1-yl}-pyridin-3-yl)-methanol]
Cc1cccc(-c2cc(N3CCN(c4ncc(CO)cc4C)C[C@H]3C)nc(N3CCCC3C)n2)c1 (stereo partly drawn) [Example 64, (5-Methyl-6-{3-(R)-methyl-4-[2-(2-methyl-pyrrolidin-1-yl)-6-m-tolyl-pyrimidin-4-yl]-piperazin-1-yl}-pyridin-3-yl)-methanol]
Cc1cc(CO)cnc1N1CCN(c2cc(-c3ccncc3)nc(N3CCCC3C)n2)[C@H](C)C1 (stereo partly drawn) [Example 65, (5-Methyl-6-{3-(R)-methyl-4-[2-(2-methyl-pyrrolidin-1-yl)-6-pyridin-4-yl-pyrimidin-4-yl]-piperazin-1-yl}-pyridin-3-yl)-methanol]
Cc1cc(CO)cnc1N1CCN(c2cc(-c3ccnc(C(C)C)c3)nc(N3CCCC3C)n2)[C@H](C)C1 (stereo partly drawn) [Example 66, (6-{4-[6-(2-Isopropyl-pyridin-4-yl)-2-(2-methyl-pyrrolidin-1-yl)-pyrimidin-4-yl]-3-(R)-methyl-piperazin-1-yl}-5-methyl-pyridin-3-yl)-methanol]
Cc1cc(CO)cnc1N1CCN(c2cc(-c3ccc(F)cc3)nc(N(C)C)n2)[C@H](C)C1 [Example 67, (6-{4-[2-Dimethylamino-6-(4-fluoro-phenyl)-pyrimidin-4-yl]-3-(R)-methyl-piperazin-1-yl}-5-methyl-pyridin-3-yl)-methanol]
Cc1cc(C(=O)O)cnc1N1CCN(c2cc(-c3ccccc3)nc(N3CCCC3C)n2)[C@H](C)C1 (stereo partly drawn) [Example 68, 5-Methyl-6-{3-(R)-methyl-4-[2-(2-methyl-pyrrolidin-1-yl)-6-phenyl-pyrimidin-4-yl]-piperazin-1-yl}-nicotinic acid]
Cc1cccc(-c2cc(N3CCN(c4ncc(C(=O)O)cc4C)C[C@H]3C)nc(N3CCCC3C)n2)c1 (stereo partly drawn) [Example 69, 5-Methyl-6-{3-(R)-methyl-4-[2-(2-methyl-pyrrolidin-1-yl)-6-m-tolyl-pyrimidin-4-yl]-piperazin-1-yl}-nicotinic acid]
Cc1cc(C(=O)O)cnc1N1CCN(c2cc(-c3ccncc3)nc(N3CCCC3C)n2)[C@H](C)C1 (stereo partly drawn) [Example 70, 5-Methyl-6-{3-(R)-methyl-4-[2-(2-methyl-pyrrolidin-1-yl)-6-pyridin-4-yl-pyrimidin-4-yl]-piperazin-1-yl}-nicotinic acid]
Cc1cc(CO)cnc1N1CCN(c2cc(-c3ccccc3)nc(N3CCCC3C)n2)CC1 (centres unmarked) [Example 71, (5-Methyl-6-{4-[2-(2-methyl-pyrrolidin-1-yl)-6-phenyl-pyrimidin-4-yl]-piperazin-1-yl}-pyridin-3-yl)-methanol]
Cc1cccc(-c2cc(N3CCN(c4ncc(CO)cc4C)CC3)nc(N3CCCC3C)n2)c1 (centres unmarked) [Example 72, (5-Methyl-6-{4-[2-(2-methyl-pyrrolidin-1-yl)-6-m-tolyl-pyrimidin-4-yl]-piperazin-1-yl}-pyridin-3-yl)-methanol]
Cc1cc(CO)cnc1N1CCN(c2cc(-c3ccncc3)nc(N3CCCC3C)n2)CC1 (centres unmarked) [Example 73, (5-Methyl-6-{4-[2-(2-methyl-pyrrolidin-1-yl)-6-pyridin-4-yl-pyrimidin-4-yl]-piperazin-1-yl}-pyridin-3-yl)-methanol]
Cc1cc(CO)cnc1N1CCN(c2cc(-c3ccnc(C(C)C)c3)nc(N3CCCC3C)n2)CC1 (centres unmarked) [Example 74, (6-{4-[6-(2-Isopropyl-pyridin-4-yl)-2-(2-methyl-pyrrolidin-1-yl)-pyrimidin-4-yl]-piperazin-1-yl}-5-methyl-pyridin-3-yl)-methanol]
Cc1cc(C(=O)O)cnc1N1CCN(c2cc(-c3ccccc3)nc(N3CCCC3C)n2)CC1 (centres unmarked) [Example 75, 5-Methyl-6-{4-[2-(2-methyl-pyrrolidin-1-yl)-6-phenyl-pyrimidin-4-yl]-piperazin-1-yl}-nicotinic acid]
Cc1cccc(-c2cc(N3CCN(c4ncc(C(=O)O)cc4C)CC3)nc(N3CCCC3C)n2)c1 (centres unmarked) [Example 76, 5-Methyl-6-{4-[2-(2-methyl-pyrrolidin-1-yl)-6-m-tolyl-pyrimidin-4-yl]-piperazin-1-yl}-nicotinic acid]
Cc1cc(C(=O)O)cnc1N1CCN(c2cc(-c3ccncc3)nc(N3CCCC3C)n2)CC1 (centres unmarked) [Example 77, 5-Methyl-6-{4-[2-(2-methyl-pyrrolidin-1-yl)-6-pyridin-4-yl-pyrimidin-4-yl]-piperazin-1-yl}-nicotinic acid]
Cc1cc(C(=O)O)cnc1N1CCN(c2cc(-c3ccnc(C(C)C)c3)nc(N3CCCC3C)n2)CC1 (centres unmarked) [Example 78, 6-{4-[6-(2-Isopropyl-pyridin-4-yl)-2-(2-methyl-pyrrolidin-1-yl)-pyrimidin-4-yl]-piperazin-1-yl}-5-methyl-nicotinic acid]
CCOC(=O)c1cnc(N2CCN(c3cc(-c4ccc(F)c(Cl)c4)ncn3)[C@H](C)C2)c(Cl)c1 [Example 79, 5-Chloro-6-{4-[6-(3-chloro-4-fluoro-phenyl)-pyrimidin-4-yl]-3-(R)-methyl-piperazin-1-yl}-nicotinic acid ethyl ester]
Cc1cc(C(=O)O)cnc1N1CCN(c2cc(-c3ccnc(C(C)C)c3)nc(N3CCCC3C)n2)[C@H](C)C1 (stereo partly drawn) [Example 80, 6-{4-[6-(2-Isopropyl-pyridin-4-yl)-2-(2-methyl-pyrrolidin-1-yl)-pyrimidin-4-yl]-3-(R)-methyl-piperazin-1-yl}-5-methyl-nicotinic acid]
Cc1cc(C(=O)O)cnc1N1CCN(c2cc(-c3ccc(F)cc3)nc(N(C)C)n2)[C@H](C)C1 [Example 81, 6-{4-[2-Dimethylamino-6-(4-fluoro-phenyl) - pyrimidin-4-yl]-3-(R)-methyl-piperazin-1-yl}-5-methyl-nicotinic acid]
Cc1cc(C(N)=O)cnc1N1CCN(c2cc(-c3ccccc3)nc(N3CCCC3C)n2)[C@H](C)C1 (stereo partly drawn) [Example 82, 5-Methyl-6-{3-(R)-methyl-4-[2-(2-methyl-pyrrolidin-1-yl)-6-phenyl-pyrimidin-4-yl]-piperazin-1-yl}-nicotinamide]
Cc1cc(C(N)=O)cnc1N1CCN(c2cc(-c3ccc(F)cc3)nc(N(C)C)n2)[C@H](C)C1 [Example 83, 6-{4-[2-Dimethylamino-6-(4-fluoro-phenyl)-pyrimidin-4-yl]-3-(R)-mcthyl-piperazin-1-yl}-5-methyl-nicotinamide]
Cc1cc(C(N)=O)cnc1N1CCN(c2cc(-c3ccccc3)nc(N(C)C)n2)[C@H](C)C1 [Example 84, 6-[4-(2-Dimethylamino-6-phenyl-pyrimidin-4-yl)-3-(R)-methyl-piperazin-1-yl]-5-methyl-nicotinamide]
Cc1cc(C(N)=O)cnc1N1CCN(c2cc(-c3ccncc3)nc(N(C)C)n2)[C@H](C)C1 [Example 85, 6-[4-(2-Dimethylamino-6-pyridin-4-yl-pyrimidin-4-yl)-3-(R)-methyl-piperazin-1-yl]-5-methyl-nicotinamide]
C[C@@H]1CN(c2ncc(C(N)=O)cc2Cl)CCN1c1cc(-c2ccc(F)c(Cl)c2)ncn1 [Example 86, 5-Chloro-6-{4-[6-(3-chloro-4-fluoro-phenyl)-pyrimidin-4-yl]-3-(R)-methyl-piperazin-1-yl}-nicotinamide]
Cc1cc(C(N)=O)cnc1N1CCN(c2cc(-c3ccccc3)nc(N3CCCC3C)n2)CC1 (centres unmarked) [Example 87, 5-Methyl-6-{4-[2-(2-methyl-pyrrolidin-1-yl)-6-phenyl-pyrimidin-4-yl]-piperazin-1-yl}-nicotinamide]
Cc1cccc(-c2cc(N3CCN(c4ncc(C(N)=O)cc4C)CC3)nc(N3CCCC3C)n2)c1 (centres unmarked) [Example 88, 5-Methyl-6-{4-[2-(2-methyl-pyrrolidin-1-yl)-6-m-tolyl-pyrimidin-4-yl]-piperazin-1-yl}-nicotinamide]
Cc1cc(C(N)=O)cnc1N1CCN(c2cc(-c3ccncc3)nc(N3CCCC3C)n2)CC1 (centres unmarked) [Example 89, 5-Methyl-6-{4-[2-(2-methyl-pyrrolidin-1-yl)-6-pyridin-4-yl-pyrimidin-4-yl]-piperazin-1-yl}-nicotinamide]
Cc1cc(C(N)=O)cnc1N1CCN(c2cc(-c3ccnc(C(C)C)c3)nc(N3CCCC3C)n2)CC1 (centres unmarked) [Example 90, 6-{4-[6-(2-Isopropyl-pyridin-4-yl)-2-(2-methyl-pyrrolidin-1-yl)-pyrimidin-4-yl]-piperazin-1-yl}-5-methyl-nicotinamide]
Cc1cc(C(=N)N)cnc1N1CCN(c2cc(-c3ccc(F)cc3)nc(N3CCCC3C)n2)CC1 (centres unmarked) [Example 91, 6-{4-[6-(4-fluorophenyl)-2-(2-methylpyrrolidin-1-yl)pyrimidin-4-yl]piperazin-1-yl}-5-methylpyridine-3-carboximidamide]
C[C@@H]1CCCN1c1nc(-c2ccc(F)cc2)cc(N2CCN(c3ncc(C(=O)O)cc3Cl)CC2)n1 [Example 92, 5-Chloro-6-{4-[6-(4-fluoro-phenyl)-2-(2-(R)-methyl-pyrrolidin-1-yl)-pyrimidin-4-yl]-piperazin-1-yl}-nicotinic acid]
C[C@@H]1CCCN1c1nc(-c2ccc(F)cc2)cc(N2CCN(c3ncc(CC(=O)O)cc3Cl)CC2)n1 [Example 93, (5-Chloro-6-{4-[6-(4-fluoro-phenyl)-2-(2-(R)-methyl-pyrrolidin-1-yl)-pyrimidin-4-yl]-piperazin-1-yl}-pyridin-3-yl)-acetic acid]
C[C@@H]1CN(c2ncc(C(=O)O)cc2Cl)CCN1c1cc(-c2ccc(F)cc2)nc(N2CCC[C@H]2C)n1 [Example 94, 5-Chloro-6-{4-[6-(4-fluoro-phenyl)-2-(2-(R)-methyl-pyrrolidin-1-yl) - pyrimidin-4-yl]-3-(R)-methyl-piperazin-1-yl} - nicotinic acid]
